≈ marks a conversion by molar mass, not a printed value. Read-outs that look alike come from different tables or passages of the source.
Key:
[1] = pH and Ka of 10-g/L aqueous solutions (pH meter); assay type: physicochemical; settings: 10-g/L solution in distilled, deionized water; for pH of solution: room temperature
[2] = test system: MRSA isolates; test: MIC/MBC, CLSI broth microdilution, MRSA isolates; assay type: cell-based, Staphylococcus aureus; settings: for change of MIC and MBC with the reduction in pH: six MRSA isolates, pH lowered to 5.5
[3] = Aqueous solubility of compounds reconstituted at 10 mg/mL in water; settings: 10 mg/mL in distilled deionized water
[4] = test system: Streptococcus pyogenes; test: MIC/MBC against Streptococcus pyogenes; assay type: cell-based; settings: for MBC: Streptococcus pyogenes
[5] = test system: human dermal fibroblast (HDF) cells; test: alamarBlue cell viability assay, HDF; settings: HDFs, 24-hour incubation, non-linear regression
[6] = test system: Pseudomonas aeruginosa; test: MIC against Pseudomonas aeruginosa; assay type: cell-based
[7] = test system: Enterococcus faecalis; test: MIC/MBC against Enterococcus faecalis; assay type: cell-based
[8] = test system: erythrocytes (sheep blood); test: Hemolytic activity against sheep erythrocytes; settings: higher than MIC90
[9] = test system: human bronchial epithelial (16HBE) cells; test: alamarBlue cell viability assay, 16HBE; settings: 24-hour incubation, non-linear regression
[10] = test system: Staphylococcus epidermidis isolates; test: microbe, parasite or virus in culture; assay type: cell-based; settings: 21 Staphylococcus epidermidis isolates
[11] = test system: MRSA isolate SAD05 biofilms; assay type: cell-based, Staphylococcus aureus
[12] = Streptococcus pyogenes (NR1571)
[13] = ATCC49532, Enterococcus faecalis (ATCC 49532)
[14] = ATCC51575, Enterococcus faecalis (ATCC 51575)
[15] = Staphylococcus aureus, MRSA, pH 5.5, MRSA 0606, pH 5.5
[16] = Staphylococcus aureus, MRSA, pH 5.5, MRSA 0608, pH 5.5
[17] = Staphylococcus aureus, MRSA, pH 5.5, MRSA 0634, pH 5.5
[18] = Staphylococcus aureus, MRSA, pH 5.5, MRSA 0641, pH 5.5
[19] = Staphylococcus aureus, MRSA, pH 5.5, MRSA 0646, pH 5.5
[20] = Staphylococcus aureus, MRSA, pH 5.5, TCH 1516, pH 5.5
[21] = Staphylococcus aureus, MRSA, pH 6.5, MRSA 0606, pH 6.5
[22] = Staphylococcus aureus, MRSA, pH 6.5, MRSA 0608, pH 6.5
[23] = Staphylococcus aureus, MRSA, pH 6.5, MRSA 0634, pH 6.5
[24] = Staphylococcus aureus, MRSA, pH 6.5, MRSA 0641, pH 6.5
[25] = Staphylococcus aureus, MRSA, pH 6.5, MRSA 0646, pH 6.5
[26] = Staphylococcus aureus, MRSA, pH 6.5, TCH 1516, pH 6.5

SMILES: CC(=O)Oc1c(Cl)cc(Cl)cc1-c1cc(Cl)cc(Cl)c1OC(C)=O [C59Ac]
- acid dissociation constant (Ka) [1]: 2.45 × 10^−12
- pH of solution [1]: 6.61
- MBC ([2]; MRSA 0606, pH 7.4): 8 µg/mL (≈ 19.6 µM)
- MIC ([2]; MRSA 0606, pH 7.4): 4 µg/mL (≈ 9.8 µM)
- MBC ([2]; MRSA 0608, pH 7.4): 12 µg/mL (≈ 29.4 µM)
- MIC ([2]; MRSA 0608, pH 7.4): 4 µg/mL (≈ 9.8 µM)
- MBC ([2]; MRSA 0634, pH 7.4): 4 µg/mL (≈ 9.8 µM)
- MIC ([2]; MRSA 0634, pH 7.4): 4 µg/mL (≈ 9.8 µM)
- MBC ([2]; MRSA 0641, pH 7.4): 12 µg/mL (≈ 29.4 µM)
- MIC ([2]; MRSA 0641, pH 7.4): 4 µg/mL (≈ 9.8 µM)
- MBC ([2]; MRSA 0646, pH 7.4): 8 µg/mL (≈ 19.6 µM)
- MIC ([2]; MRSA 0646, pH 7.4): 4 µg/mL (≈ 9.8 µM)
- MBC ([2]; TCH 1516, pH 7.4): 4 µg/mL (≈ 9.8 µM)
- MIC ([2]; TCH 1516, pH 7.4): 4 µg/mL (≈ 9.8 µM)
- change of MIC and MBC with the reduction in pH [2]: remained unchanged
- aqueous solubility [3]: moderate aqueous solubility

SMILES: Oc1c(Br)cc(Br)cc1-c1cc(Br)cc(Br)c1O [C58, MC21-A]
- MIC [4, 12]: 4 µg/mL (≈ 7.97 µM)
- MIC ([4]; Streptococcus pyogenes (NR1575), read-out: MIC): 4 µg/mL (≈ 7.97 µM)
- MBC [4, 12]: 16 µg/mL (≈ 31.9 µM)
- MBC ([4]; Streptococcus pyogenes (NR1575)): 12 µg/mL (≈ 23.9 µM)
- acid dissociation constant (Ka) [1]: 1.26 × 10^−12
- pH of solution [1]: 6.80
- LD50 [5]: 71.3 µg/mL
- MIC ([6]; Pseudomonas aeruginosa (PAM57-15)): > 32 µg/mL
- MIC ([6]; Pseudomonas aeruginosa (PAO1)): > 32 µg/mL
- MBC [7, 13]: 12 µg/mL (≈ 23.9 µM)
- MIC [7, 13]: 6 µg/mL (≈ 12 µM)
- MBC [7, 14]: 12 µg/mL (≈ 23.9 µM)
- MIC [7, 14]: 6 µg/mL (≈ 12 µM)
- concentration where hemolytic activity begins relative to MIC90 [8]: 32 fold
- LD50 [9]: 59.3 µg/mL
- MBC range [10]: 4 to 12 µg/mL
- MIC range [10]: 1 to 4 µg/mL
- MBC ([10]; read-out: MBC90): 8 µg/mL (≈ 15.9 µM)
- MIC90 ([10]; read-out: MIC90): 2 µg/mL (≈ 3.99 µM)
- MBC ([2]; MRSA 0606, pH 7.4): 6 µg/mL (≈ 12 µM)
- MIC ([2]; MRSA 0606, pH 7.4): 2 µg/mL (≈ 3.99 µM)
- MBC ([2]; MRSA 0608, pH 7.4): 4 µg/mL (≈ 7.97 µM)
- MIC ([2]; MRSA 0608, pH 7.4): 2 µg/mL (≈ 3.99 µM)
- MBC ([2]; MRSA 0634, pH 7.4): 2 µg/mL (≈ 3.99 µM)
- MIC ([2]; MRSA 0634, pH 7.4): 2 µg/mL (≈ 3.99 µM)
- MBC ([2]; MRSA 0641, pH 7.4): 4 µg/mL (≈ 7.97 µM)
- MIC ([2]; MRSA 0641, pH 7.4): 2 µg/mL (≈ 3.99 µM)
- MBC ([2]; MRSA 0646, pH 7.4): 4 µg/mL (≈ 7.97 µM)
- MIC ([2]; MRSA 0646, pH 7.4): 2 µg/mL (≈ 3.99 µM)
- MIC90 ([2]; Staphylococcus aureus, MRSA): 2 µg/mL (≈ 3.99 µM)
- MBC [2, 15]: 0.5 µg/mL (≈ 0.996 µM)
- MIC [2, 15]: 0.5 µg/mL (≈ 0.996 µM)
- MBC [2, 16]: 0.5 µg/mL (≈ 0.996 µM)
- MIC [2, 16]: 0.5 µg/mL (≈ 0.996 µM)
- MBC [2, 17]: 0.5 µg/mL (≈ 0.996 µM)
- MIC [2, 17]: 0.5 µg/mL (≈ 0.996 µM)
- MBC [2, 18]: 0.5 µg/mL (≈ 0.996 µM)
- MIC [2, 18]: 0.5 µg/mL (≈ 0.996 µM)
- MBC [2, 19]: 1 µg/mL (≈ 1.99 µM)
- MIC [2, 19]: 0.5 µg/mL (≈ 0.996 µM)
- MBC [2, 20]: 1 µg/mL (≈ 1.99 µM)
- MIC [2, 20]: 1 µg/mL (≈ 1.99 µM)
- MBC ([2]; Staphylococcus aureus, MRSA, pH 5.5, read-out: Average MBC, average of six MRSA isolates, pH 5.5): 0.67 µg/mL (≈ 1.34 µM)
- MIC ([2]; Staphylococcus aureus, MRSA, pH 5.5, read-out: Average MIC, average of six MRSA isolates, pH 5.5): 0.58 µg/mL (≈ 1.16 µM)
- MBC [2, 21]: 2 µg/mL (≈ 3.99 µM)
- MIC [2, 21]: 1 µg/mL (≈ 1.99 µM)
- MBC [2, 22]: 2 µg/mL (≈ 3.99 µM)
- MIC [2, 22]: 2 µg/mL (≈ 3.99 µM)
- MBC [2, 23]: 2 µg/mL (≈ 3.99 µM)
- MIC [2, 23]: 1 µg/mL (≈ 1.99 µM)
- MBC [2, 24]: 2 µg/mL (≈ 3.99 µM)
- MIC [2, 24]: 1 µg/mL (≈ 1.99 µM)
- MBC [2, 25]: 2 µg/mL (≈ 3.99 µM)
- MIC [2, 25]: 1 µg/mL (≈ 1.99 µM)
- MBC [2, 26]: 2 µg/mL (≈ 3.99 µM)
- MIC [2, 26]: 1 µg/mL (≈ 1.99 µM)
- MBC ([2]; Staphylococcus aureus, MRSA, pH 6.5, read-out: Average MBC, average of six MRSA isolates, pH 6.5): 2 µg/mL (≈ 3.99 µM)
- MIC ([2]; Staphylococcus aureus, MRSA, pH 6.5, read-out: Average MIC, average of six MRSA isolates, pH 6.5): 1.2 µg/mL (≈ 2.39 µM)
- MBC ([2]; Staphylococcus aureus, MRSA, pH 7.4, read-out: Average MBC, average of six MRSA isolates, pH 7.4): 4 µg/mL (≈ 7.97 µM)
- MIC ([2]; Staphylococcus aureus, MRSA, pH 7.4, read-out: Average MIC, average of six MRSA isolates, pH 7.4): 2 µg/mL (≈ 3.99 µM)
- MBC ([2]; Staphylococcus aureus, MRSA, read-out: MBC90, 39 evaluated MRSA isolates, CLSI broth microdilution): 4 µg/mL (≈ 7.97 µM)
- MBC ([2]; TCH 1516, pH 7.4): 4 µg/mL (≈ 7.97 µM)
- MIC ([2]; TCH 1516, pH 7.4): 2 µg/mL (≈ 3.99 µM)
- change of MIC and MBC with the reduction in pH [2]: decreased as much as fourfold
- concentration that completely eradicated biofilms ([11]; 72-hour biofilms of SAD05, MBEC assay): 8 µg/mL
- biofilm biomass, crystal violet assay ([11]; SAD05 biofilms, compared with vancomycin): lower biomass
